These results are taken from patent publication US9732060B2, “Aminotriazine derivative and pharmaceutical composition comprising the same” (Shionogi & Co., Ltd., priority 2013, dated 2017).

For orientation: fraction unbound means the share of the substance not bound to proteins or other matrix. Lower therefore signals little free substance. Broadly, the IC50 is the concentration that inhibits the measured activity by half. A word on the clearance: it is the rate of elimination divided by the concentration. Low readings indicate inefficient removal, high ones efficient removal. One may read the AUC as concentration integrated over time.

SMILES strings stand for the structures. Read-outs that look alike come from different tables or passages of the source.

A short description of series [1]: Protein binding test (equilibrium dialysis, unbound fraction in serum). Particulars: 37° C. It counts as in vitro ADME. The protocol:
The unbound fraction of the present compound in serum was measured using serum of various species.
The reactive conditions are as follows: Evaluation method, Equilibrium dialysis; Reaction time, 24 hours; Reaction temperature, 37° C.; Concentration of the present compound, 2 μg/mL
The test solution was added to each serum and the mixture was agitated to prepare the serum samples at the concentration mentioned above. Each serum sample was added into one side of the cell and phosphate buffered saline (PBS) was added into the other side to perform equilibrium dialysis at 37° C. for 24 hours. Then, the concentration of the compounds in the samples that were obtained from both sides was measured by LC/MS/MS.
The ratio of PBS concentration to serum concentration is expressed as unbound fraction (fu),

A further series deals with Rat P2X3 receptor (Rattus norvegicus (Rat), UniProt P49654). Briefly: Evaluation of rat P2X3 receptor inhibitory activity in the presence of rat serum albumin (RSA). In kind it is cell-based. The conditions noted are these: read-out: ratP2X3 + RSA IC50. The protocol:
Rat P2X3 receptor gene (GenBank accession number NM_031075) was expressed in C6BU-1 cell. The C6BU-1 cells were seeded in a 96-well micro titer plate at a concentration of 2500 cells/well and cultured in the medium (7.0% fetal bovine serum, 7.0% horse serum, and 1% antibiotic and antifungal in DMEM) for one day at 37° C. under 5% carbon dioxide atmosphere. The plasmid was transfected into the cells using transfection reagent FuGENE6 (Promega). The transfected cells were cultured in the medium for one day at 37° C. under 5% carbon dioxide atmosphere. The medium was replaced with 4 μM Fluo-4-AM solution (pH 7.5) containing 20 mM HEPES, 137 mM NaCl, 5.27 mM KCl, 0.9 mM MgCl2, 1.26 mM CaCl2, 5.6 mM D-glucose, 2.5 mM probenecid, 10% RSA, and 0.08% Pluronic F-127, and incubated at 37° C. under 5% dioxide carbon atmosphere for one hour. The plate was washed with washing buffer (20 mM HEPES, 137 mM NaCl, 5.27 mM KCl, 0.9 mM MgCl2, 1.26 mM CaCl2, 5.6 mM D-glucose, 2.5 mM probenecid, pH 7.5), and each well was added with 40 μL of this buffer. The plate was placed in High-Throughput Screening System FDSS 3000 (Hamamatsu Photonics K.K.). Measurement of fluorescence intensity by FDSS 3000 was started, and 40 μL of DMSO solutions containing 1% RSA (final concentrations) and different concentrations of the test compound as prepared by dilution with dilution buffer (20 mM HEPES, 137 mM NaCl, 5.27 mM KCl, 0.9 mM MgCl2, 1.26 mM CaCl2, 5.6 mM D-glucose, 2.5 mM probenecid, 0.1% Pluronic F-127, pH 7.5) were dispensed to each well through the built-in automatic dispenser. Five minutes after, 50 nM ATP solution (50 μL) prepared by dilution with the dilution buffer was dispensed through the built-in automatic dispenser, and the measurement of fluorescence intensity was continued for 4 min. For each well, the specific maximum fluorescence intensity was calculated as the ratio of the maximum fluorescence intensity after addition of the ATP solution to the fluorescence intensity at the starting of the measurement. […] FDSS software (Hamamatsu Photonics K.K.) was used for calculation of the specific maximum fluorescence intensity. IC50 was calculated using Microsoft Excel (Microsoft Corporation) and XLfit (idbs Ltd.).

A short description of series [2]: Metabolism stability test, pooled human hepatic microsomes. It counts as in vitro ADME. The conditions noted are these: remaining rate, human liver microsomes, 30 minutes, compound concentration 0.5 μmol/L. Here is the method:
Using commercially available pooled human hepatic microsomes, a test compound is reacted for a constant time, a remaining rate is calculated by comparing a reacted sample and an unreacted sample, thereby, a degree of metabolism in liver is assessed.
A reaction was performed (oxidative reaction) at 37° C. for 0 minute or 30 minutes in the presence of 1 mmol/L NADPH in 0.2 mL of a buffer (50 mmol/L tris-HCl pH 7.4, 150 mmol/L potassium chloride, 10 mmol/L magnesium chloride) containing 0.5 mg protein/mL of human liver microsomes. After the reaction, 50 μL of the reaction solution was added to 100 μL of a methanol/acetonitrile=1/1 (v/v) mixed and centrifuged at 3000 rpm for 15 minutes. The test compound in the supernatant was quantified by LC/MS/MS, and a remaining amount of the test compound after the reaction was calculated, letting a compound amount at 0 minute reaction time to be 100%.
The remaining rate at the compound concentration 0.5 μmol/L are shown below.
(Microsomes from liver hold many membrane-bound enzymes, among them those of drug oxidation.)

In the next series the target is human P2X3 receptor (Homo sapiens (Human), UniProt P56373). Briefly: Evaluation of human P2X3 receptor inhibitory activity in the presence of human serum albumin (HSA). It counts as cell-based. The conditions noted are these: in the presence of 1% HSA (final concentration). The protocol:
Stably expressing cell line (C6BU-1 cell transfected with human P2X3 receptor gene (GenBank accession number Y07683; was used. The cells were seeded in a 96-well microtiter plate at a concentration of 8000 cells/well and cultured in the medium (7.0% fetal bovine serum, 7.0% horse serum, 1% antibiotic and antifungal, and 2.0% glutamine in DMEM) for one day at 37° C. under 5% carbon dioxide atmosphere. The medium was replaced with 4 μM Fluo-3-AM solution (20 mM HEPES, 137 mM NaCl, 5.37 mM KCl, 0.9 mM MgCl2, 1.26 mM CaCl2, 5.6 mM D-glucose, 2.5 mM probenecid, 0.5% BSA, and 0.04% Pluronic F-127, pH 7.5) and incubated at 37° C. under 5% dioxide carbon atmosphere for one hour. The plate was washed with washing buffer (20 mM HEPES, 137 mM NaCl, 5.27 mM KCl, 0.9 mM MgCl2, 1.26 mM CaCl2, 5.6 mM D-glucose, 2.5 mM probenecid, pH 7.5), and each well was added with 40 μL of this buffer. The plate was placed in High-Throughput Screening System FDSS 3000 (Hamamatsu Photonics K.K.). Measurement of fluorescence intensity by FDSS 3000 was started, and 40 μL of DMSO solutions containing 1% HSA (final concentrations) different concentrations of the test compound as prepared by dilution with dilution buffer (20 mM HEPES, 137 mM NaCl, 5.27 mM KCl, 0.9 mM MgCl2, 1.26 mM CaCl2, 5.6 mM D-glucose, 2.5 mM probenecid, 0.1% Pluronic F-127, pH 7.5) were dispensed to each well through the built-in automatic dispenser. Five minutes after, 50 nM ATP solution (50 μL) prepared by dilution with the dilution buffer was dispensed through the built-in automatic dispenser, and the measurement of fluorescence intensity was continued for 4 min. For each well, the specific maximum fluorescence intensity was calculated as the ratio of the maximum fluorescence intensity after addition of the ATP solution to the fluorescence intensity at the starting of the measurement. […] FDSS software (Hamamatsu Photonics K.K.) was used for calculation of the specific maximum fluorescence intensity. IC50 was calculated using Microsoft Excel (Microsoft Corporation) and XLfit (idbs Ltd.)

Series [3] in a line: Solubility test (1% DMSO, artificial intestinal juice pH 6.8). It counts as physicochemical. Particulars: artificial intestinal juice pH 6.8 with 1% DMSO, 25 °C, fassgf or other biorelevant, kinetic from dmso stock, artificial intestinal juice pH 6.8, 25 degrees Celsius, read-out: Solubulity. Here is the method: The solubility of a compound was determined under a condition in which 1% DMSO was added. 10 mmol/L compound solution was prepared using DMSO, and then 2 μL of the compound solution was added to 198 μL of artificial intestinal juice in pH 6.8 (to 250 mL of 0.2 mol/L potassium dihydrogen phosphate reagent solution was added 118 mL of 0.2 mol/L NaOH reagent solution and water to provide a final volume of 1000 mL). After standing at 25 degrees Celsius for 18 hours, the mixed solution was filtrated with suction. The filtrate was diluted twice with methanol/water (1/1), and then a concentration in the filtration was measured with HPLC or LC/MS/MS by the absolute calibration method.

Series [4] is described as follows: Pharmacokinetic test (BA, CLtot). It counts as in vivo. Particulars: rat, plasma, SD rats. Here is the method: • (1) Animals: SD rats were used • (2) Breeding conditions: SD rats were allowed to freely take solid food and sterilized tap water. • (3) Dose and grouping: orally or intravenously administered at a predetermined dose; grouping was as follows (Dose depends on the compound)
Oral administration: 1 mg/kg (n=2)
The total body clearance (CLtot) was calculated by dividing the dose by the AUC of the intravenous administration group.

The target in the next series is CYP3A4 (Homo sapiens (Human), UniProt P08684). Briefly: CYP inhibition test, CYP3A4. The conditions noted are these: pooled human hepatic microsome; terfenedine hydroxylation. In kind it is in vitro ADME. Here is the method: (§1) Using commercially available pooled human hepatic microsome, and employing, as markers, 7-ethoxyresorufin-O-deethylation (CYP1A2), tolbutamide methyl-hydroxylation (CYP2C9), mephenytoin 4′-hydroxylation (CYP2C19), dextromethorphan O-demethylation (CYP2D6), and terfenedine hydroxylation as typical substrate metabolism reactions of human main five CYP enzyme forms (CYP1A2, 2C9, 2C19, 2D6, 3A4), an inhibitory degree of each metabolite production amount by a test compound was assessed.
(§2) The reaction conditions were as follows: substrate, 0.5 μmol/L ethoxyresorufin (CYP1A2), 100 μmol/L tolbutamide (CYP2C9), 50 μmol/L S-mephenitoin (CYP2C19), 5 μmol/L dextromethorphan (CYP2D6), 1 μmol/L terfenedine (CYP3A4); reaction time, 15 minutes; reaction temperature, 37° C. enzyme, pooled human hepatic microsome 0.2 mg protein/mL; test, drug concentration, 1.0, 5.0, 10, 20 μmol/L (four points).
(§3) Each five kinds of substrates, human hepatic microsome, or a test drug in 50 mmol/L Hepes buffer as a reaction solution was added to a […] at the composition as described above, NADPH, as a cofactor was added to initiate metabolism reactions as markers and, after the incubation at 37° C. for 15 minutes, a methanol/acetonitrile=1/1 (v/v) solution was added to stop the reaction. After the centrifugation at 3000 rpm for 15 minutes, resorufin (CYP1A2 metabolite) in the supernatant was quantified by a fluorescent multilabel counter and tributamide hydroxide (CYP2CP metabolite), mephenytoin 4′hydroxide (CYP2C19 metabolite), […] (CYP2D6 metabolite), and terfenadine alcohol (CYP3A4 metabolite) were quantified by LC/MS/MS.
(§4) Addition of only DMSO being a solvent dissolving a drug to a reaction system was adopted as a control (100%), remaining activity (%) was calculated at each concentration of a test drug added as the solution and IC50 was calculated by reverse presumption by a logistic model using a concentration and an inhibition rate.

A further series deals with CYP2D6 (Homo sapiens (Human), UniProt P10635). Briefly: CYP inhibition test, CYP2D6. It counts as in vitro ADME. The conditions noted are these: pooled human hepatic microsome; dextromethorphan O-demethylation. Here is the method: as §1, §2, §3, §4
The target in another series is CYP1A2 (Homo sapiens (Human), UniProt P05177). Briefly: CYP inhibition test, CYP1A2. In kind it is in vitro ADME. Particulars: pooled human hepatic microsome; 7-ethoxyresorufin-O-deethylation. The protocol: as §1, §2, §3, §4
The target in a further series is CYP2C19 (Homo sapiens (Human), UniProt P33261). Briefly: CYP inhibition test, CYP2C19. In kind it is in vitro ADME. Particulars: pooled human hepatic microsome; mephenytoin 4′-hydroxylation. The protocol: as §1, §2, §3, §4
The target in another series is CYP2C9 (Homo sapiens (Human), UniProt P11712). Briefly: CYP inhibition test, CYP2C9. Particulars: pooled human hepatic microsome; tolbutamide methyl-hydroxylation. In kind it is in vitro ADME. Here is the method: as §1, §2, §3, §4
Sequence of CYP2C9 (P11712 whole entry): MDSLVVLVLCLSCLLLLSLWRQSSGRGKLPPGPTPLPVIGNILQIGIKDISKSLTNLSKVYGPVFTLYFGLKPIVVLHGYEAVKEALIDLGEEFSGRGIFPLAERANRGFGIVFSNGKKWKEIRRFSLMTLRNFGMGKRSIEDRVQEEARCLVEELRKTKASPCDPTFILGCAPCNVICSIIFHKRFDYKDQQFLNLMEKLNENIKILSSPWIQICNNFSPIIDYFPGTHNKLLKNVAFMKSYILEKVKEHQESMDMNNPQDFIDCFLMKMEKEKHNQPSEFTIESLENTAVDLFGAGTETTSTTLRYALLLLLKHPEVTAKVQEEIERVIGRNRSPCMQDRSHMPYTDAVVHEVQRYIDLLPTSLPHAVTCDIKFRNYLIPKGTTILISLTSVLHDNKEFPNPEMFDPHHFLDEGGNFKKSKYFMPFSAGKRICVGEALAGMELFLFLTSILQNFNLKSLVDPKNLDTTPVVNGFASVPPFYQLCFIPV

Sequence of Rat P2X3 receptor (P49654 whole entry): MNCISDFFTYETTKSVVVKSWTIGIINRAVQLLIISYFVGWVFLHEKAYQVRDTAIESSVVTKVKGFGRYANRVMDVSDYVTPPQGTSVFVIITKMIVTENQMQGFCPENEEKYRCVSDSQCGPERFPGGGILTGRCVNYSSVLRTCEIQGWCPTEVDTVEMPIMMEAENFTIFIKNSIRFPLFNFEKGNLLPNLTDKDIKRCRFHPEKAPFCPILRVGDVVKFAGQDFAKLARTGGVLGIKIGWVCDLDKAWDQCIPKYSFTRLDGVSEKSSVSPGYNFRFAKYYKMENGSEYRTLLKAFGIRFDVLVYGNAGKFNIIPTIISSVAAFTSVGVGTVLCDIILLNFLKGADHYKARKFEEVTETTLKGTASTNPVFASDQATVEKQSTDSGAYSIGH
Sequence of human P2X3 receptor (P56373 whole entry): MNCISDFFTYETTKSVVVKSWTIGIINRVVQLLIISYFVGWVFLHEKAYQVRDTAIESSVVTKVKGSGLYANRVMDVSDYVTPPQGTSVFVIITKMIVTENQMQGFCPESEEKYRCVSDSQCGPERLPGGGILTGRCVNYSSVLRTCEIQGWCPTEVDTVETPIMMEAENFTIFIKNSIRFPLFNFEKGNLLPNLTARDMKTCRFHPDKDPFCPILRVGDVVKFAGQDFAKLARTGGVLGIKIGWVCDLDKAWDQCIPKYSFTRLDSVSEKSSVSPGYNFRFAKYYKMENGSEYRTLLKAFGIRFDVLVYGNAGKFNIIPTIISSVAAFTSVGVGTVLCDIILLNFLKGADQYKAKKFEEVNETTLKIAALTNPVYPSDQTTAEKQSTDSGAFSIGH
Sequence of CYP1A2 (P05177 whole entry): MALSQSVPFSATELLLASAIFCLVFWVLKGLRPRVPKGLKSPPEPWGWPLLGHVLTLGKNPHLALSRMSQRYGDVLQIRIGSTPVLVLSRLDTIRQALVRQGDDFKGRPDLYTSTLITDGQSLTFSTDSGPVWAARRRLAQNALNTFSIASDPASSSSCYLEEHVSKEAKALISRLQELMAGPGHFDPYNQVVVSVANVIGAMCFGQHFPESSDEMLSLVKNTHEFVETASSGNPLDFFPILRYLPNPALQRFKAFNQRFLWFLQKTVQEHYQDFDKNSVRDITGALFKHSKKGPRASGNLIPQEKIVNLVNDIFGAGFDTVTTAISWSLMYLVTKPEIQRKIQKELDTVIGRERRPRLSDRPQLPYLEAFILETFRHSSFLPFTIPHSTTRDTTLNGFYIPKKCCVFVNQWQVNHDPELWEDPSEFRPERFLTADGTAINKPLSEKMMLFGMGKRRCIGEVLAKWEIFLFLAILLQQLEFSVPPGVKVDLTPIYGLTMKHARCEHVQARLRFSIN
Sequence of CYP2D6 (P10635 whole entry): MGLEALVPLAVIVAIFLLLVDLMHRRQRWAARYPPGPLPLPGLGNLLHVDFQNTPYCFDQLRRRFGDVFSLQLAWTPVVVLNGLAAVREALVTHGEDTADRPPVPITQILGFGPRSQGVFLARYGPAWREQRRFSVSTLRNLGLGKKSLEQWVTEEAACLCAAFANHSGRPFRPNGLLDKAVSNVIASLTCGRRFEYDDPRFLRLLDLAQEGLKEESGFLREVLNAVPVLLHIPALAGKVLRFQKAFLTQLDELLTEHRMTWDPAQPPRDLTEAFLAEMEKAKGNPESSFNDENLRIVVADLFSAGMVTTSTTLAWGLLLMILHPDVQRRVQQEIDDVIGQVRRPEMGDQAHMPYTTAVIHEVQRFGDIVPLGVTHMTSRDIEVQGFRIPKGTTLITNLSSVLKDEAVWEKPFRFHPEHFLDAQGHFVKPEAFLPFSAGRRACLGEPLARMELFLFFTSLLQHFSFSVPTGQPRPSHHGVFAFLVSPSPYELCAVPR
Sequence of CYP3A4 (P08684 whole entry): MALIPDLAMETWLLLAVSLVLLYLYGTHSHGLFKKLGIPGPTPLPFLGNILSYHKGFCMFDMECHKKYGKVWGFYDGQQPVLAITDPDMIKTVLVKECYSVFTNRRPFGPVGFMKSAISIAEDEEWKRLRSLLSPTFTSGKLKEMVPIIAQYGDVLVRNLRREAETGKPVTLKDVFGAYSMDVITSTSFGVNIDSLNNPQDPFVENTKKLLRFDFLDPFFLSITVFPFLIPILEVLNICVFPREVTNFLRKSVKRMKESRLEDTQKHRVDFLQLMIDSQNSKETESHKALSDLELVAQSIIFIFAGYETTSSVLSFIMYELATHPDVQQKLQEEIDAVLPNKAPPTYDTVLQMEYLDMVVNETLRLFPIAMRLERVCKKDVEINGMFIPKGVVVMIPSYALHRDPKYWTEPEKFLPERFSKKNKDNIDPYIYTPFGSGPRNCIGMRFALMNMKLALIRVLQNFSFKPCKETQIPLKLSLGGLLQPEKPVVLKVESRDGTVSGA
Sequence of CYP2C19 (P33261 whole entry): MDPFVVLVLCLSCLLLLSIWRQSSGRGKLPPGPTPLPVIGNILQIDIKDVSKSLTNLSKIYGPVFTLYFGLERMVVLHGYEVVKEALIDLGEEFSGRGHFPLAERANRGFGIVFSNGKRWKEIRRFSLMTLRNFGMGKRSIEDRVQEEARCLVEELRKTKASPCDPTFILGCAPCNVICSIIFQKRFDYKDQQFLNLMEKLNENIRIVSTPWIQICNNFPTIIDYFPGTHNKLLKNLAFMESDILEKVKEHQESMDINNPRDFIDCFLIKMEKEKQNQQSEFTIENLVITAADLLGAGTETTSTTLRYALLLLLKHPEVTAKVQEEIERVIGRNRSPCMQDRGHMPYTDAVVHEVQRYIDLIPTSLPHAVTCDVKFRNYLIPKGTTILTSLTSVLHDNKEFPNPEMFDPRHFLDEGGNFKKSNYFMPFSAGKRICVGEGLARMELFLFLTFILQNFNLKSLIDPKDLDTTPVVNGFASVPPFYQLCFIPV

Regarding `O=c1[nH]/c(=N\c2ccc(Oc3ccc(F)cn3)cc2)n(Cc2ccc(Cl)cc2)c(=O)n1[C@H]1C[C@H](C(=O)O)C1` [Compound I-019], the fraction unbound at 24 h, 2 μg/mL in series [1] was found to be 0.01. Moreover, the IC50 turned out to be 11 nM on Rat P2X3 receptor and 68 nM on human P2X3 receptor. Further, the “Metabolism Stability” value in series [2] stood at 96%. The solubility at 18 h in series [3] was more than 50 µM.

For `C[C@@H](Cn1c(=O)[nH]/c(=N\c2ccc(Oc3cccc(F)n3)cc2)n(Cc2ccc(F)cc2F)c1=O)C(=O)O` [Compound I-029], the free fraction (fraction unbound) at 24 h, 2 μg/mL in [1] was 0.017. Further, the “Metabolism Stability” value in series [2] was 100%.

Turning to `Cc1ccc(Cn2c(=O)n(C[C@H](C)C(=O)O)c(=O)[nH]/c2=N\c2ccc(Oc3ncccc3F)cc2)cc1` [Compound I-056], in [1], the fraction unbound at 24 h, 2 μg/mL is 0.018. Moreover, the half-maximal inhibitory concentration (IC50) on human P2X3 receptor came out at 23 nM.

In series [4] (intravenous administration 0.5 mg/kg), `Cc1ccc(Cn2c(=O)n(C[C@H](C)C(=O)O)c(=O)[nH]/c2=N\c2ccc(Oc3cccc(F)n3)cc2)cc1` [Compound I-057] displayed a clearance of 22.9 mL/min/kg. Besides, the AUC was found to be 367 ng·h/mL in series [4] (intravenous administration 0.5 mg/kg, read-out: AUC (iv)) and 487 ng·h/mL in series [4] (oral administration 1 mg/kg, read-out: AUC (po)). The IC50 against CYP3A4, against CYP2D6, on CYP1A2, on CYP2C19 and on CYP2C9 was more than 20000 nM in each case. For the same compound, the fraction unbound at 24 h, 2 μg/mL in series [1] amounted to 0.017. In series [2], the “Metabolism Stability” value was 91%. Moreover, the solubility at 18 h in series [3] is more than 50 µM.

Consider `C[C@@H](Cn1c(=O)[nH]/c(=N\c2ccc(Oc3cnccn3)cc2)n(Cc2ccc(Cl)cc2)c1=O)C(=O)O` [Compound R-019], for which, in [1], the free fraction (fraction unbound) at 24 h, 2 μg/mL came out at 0.018. Further, at Rat P2X3 receptor, the IC50 was determined as 8 nM.
